Experiments:
Type in all cases: in vivo, mouse
[1] = UHPLC-MS/MS measurement of ADP-heptose in plasma and BM; settings: DSS-induced intestinal barrier dysfunction in mice
Procedure: To measure ADP-heptose, lysates were prepared as described previously. (Gaudet, R. G., et al. INNATE IMMUNITY. Cytosolic detection of the bacterial metabolite HBP activates TIFA-dependent innate immunity. Science 348, 1251-1255 (2015).) Briefly, bacterial culture suspensions of various mouse tissues and human plasma samples were first spun at 4000 g for 5 minutes. Next, pellets were suspended in 1 ml of sterile water. Bacterial cells were then lysed by heating at 95° C. for 15 minutes. Next, lysates were centrifuged at 4000 g for 3 minutes and supernatants filtered through a 0.20 μm syringe filter using 1 ml syringe and needle. Finally, lysates were stored at −80° C. until further processing for Mass Spectrometry. Following a previously established protocol, lysates were prepared. (Pfannkuch, L., et al. ADP heptose, a novel pathogen-associated molecular pattern identified in Helicobacter pylori. FASEB J 33, 9087-9099 (2019).) Briefly, 500 μl of the cleared bacterial lysate was thawed from −80° C. and extracted by addition of 1 ml chloroform/methanol (v:v 2:1) and vortexed and centrifuged (5 min, 10,000 g). […]
The concentration of ADP-heptose was determined using an ultrahigh-performance liquid chromatography-electrospray ionization-mass spectrometry (UHPLC-ESI-MS/MS) method by modifying our previously described protocol. […]

Dnmt3a^−/− HSCs = assay: DSS gut injury in low-dose irradiated chimeric mice, with or without antibiotics pre-treatment
Text: To model pre-leukemic clonal hematopoiesis, chimeric mice were generated as aas follows. Briefly, mixture of 1×10^6 whole bone marrow cells (WBM) were obtained from Poly (I:C) treated wild-type (Dnmt3a^+/+; MxCre^+, called Dnmt3a^WT) or mutant mice (Dnmt3a^f/f; MxCre^+, called Dnmt3a^KO) or double mutant mice (Dnmt3a^f/f; MxCre^+; Alpk1^KO, called Dnmt3a^KO; Alpk1^KO) (CD45.2^+), and transplanted into low-dose (2.5 Gy) irradiated recipient mice (CD45.1^+; 6-10 weeks of age). 8 weeks post-transplant, chimeric mice were treated with either water (H2O) or DSS (2.5%) for 1 week, and allowed to recover for 1 more week on water after which flow cytometry was performed on BM. In separate experiment, chimeric mice were pre-treated with broad spectrum antibiotics (ABX) for 4 weeks, and then subjected to DSS for 1 week after which flow cytometry performed on BM. In a separate set of experiment, chimeric mice were treated with either H2O or ADP-heptose (0.5 mg/kg) for 2 weeks, and flow cytometry performed after 2 more weeks on BM. […]
Mice were treated with 2.5% DSS (wt/vol) (MW: 36,000-50,000 Da, Cat No. 216011090, MP Biomedicals) in autoclaved drinking water to induce gut injury-associated colitis as mentioned before. […] Mice were monitored daily for weight loss, stool consistency, and the presence of frank blood in the stool. […]

[2] = Quantification of bacterial DNA (16S) in blood by real-time PCR; settings: DSS-induced intestinal barrier dysfunction in mice
Text: The previously described protocol to examine bacterial translocation into blood was used. (Luo, Z., et al. CRIg(+) Macrophages Prevent Gut Microbial DNA-Containing Extracellular Vesicle-Induced Tissue Inflammation and Insulin Resistance. Gastroenterology 160, 863-874 (2021); Tabuchi, Y., et al. Oral dextran sulfate sodium administration induces peripheral spondyloarthritis features in SKG mice accompanied by intestinal bacterial translocation and systemic Th1 and Th17 cell activation. Arthritis Res Ther 24, 176 (2022)) Whole blood was collected by cheek bleeding in sterile BD Microtainer Capillary Blood Collector and Microgard Closure tubes (Cat No. 13-680-62, Fisher Scientific) on ice from each mouse using Goldenrod Animal Lancets 4 mm (Cat No. NC9922361, Braintree Scientific), and genomic DNA extracted using DNeasy Blood & Tissue Kit (Cat No. 69504, Qiagen). qPCR was performed using Femto Bacterial DNA Quantification Kit (Cat. No. E2006, Zymo Research) according to the manufacturers' instructions. Samples with a Ct value more than 35 cycles or undetectable were counted as 0 μg/ml.

dextran sulfate sodium [DSS]
ADP-heptose in BM and PB plasma by mass spectrometry [1]: circulating ADP-heptose in the BM and PB plasma | expansion of Dnmt3a^−/− HSCs in the BM (Dnmt3a^−/− HSCs): significant expansion | copies of 16S rRNA in the blood [2]: increased copies

— patent US20250314644A1, “METHODS COMPRISING DETECTION OF ADP-HEPTOSE” (CHILDREN'S HOSPITAL MEDICAL CENTER, priority 2023, published 2025)
